In patent US20160310621A1, “IMAGING PROBES, FORMULATIONS, AND USES THEREOF” (priority 2015, published 2016):
Entries after “also recorded” stand apart in the source; their conditions may differ.

System: rat model of arthritis (bone uptake)
Experiment: PET imaging in rat HKMT/IFA model of arthritis
Format: in vivo
Description: Single modality BP imaging probes with ^18F were generated according to the Schemes described in FIGS. 6A-6B and FIG. 7. […] A rat (Lewis rats, 6-12 weeks of age) model of arthritis was generated by subcutaneous injection of heat killed Mycobacterium tuberculosis (strain H37Ra) suspended in incomplete Freund's adjuvant (HKMT/IFA). […] The swelling was easily identifiable by day 16 post injection, but undetectable in the animals on day 7 (FIGS. 12A-12D).
Rats were given a total of about 500 μCi (about 0.5 nmole) of freshly prepared ^18F-RIS-SFB (single modality BP conjugated imaging probe) by i.v. injection. PET imaging was conducted using a GE eXplore Vista small animal PET system.

[18F-].[Na+] [Na^18F]
time at which increased accumulation in bone is seen by PET (RA model rats, post induction): ~18 days | detection of early bone involvement in RA by PET (early time point (day 7), before clinical signs): fails to detect the earliest signs of bone involvement in RA; also recorded: does not detect the early bone involvement in RA at day 7
